{"source": "patent US20130142872A1", "about": "“EMP2: Ethyl-Methyl, di Methyl, tri Methyl Pyruvate Acid Esters: A Tool for Regulating HbA1c and a Riboswitch Activator” (priority 2011, published 2013)", "origin": "cited, not measured here", "key": {"[1]": {"conditions": "after coronary ischemia and reperfusion"}, "[2]": {"conditions": "clinically prescribed / clinically relevant doses"}, "[3]": {"conditions": "wide variety of preclinical models of critical illnesses"}, "B-islet pancreatic cell": {"test_system": "B-islet pancreatic cell", "conditions": "as compared to its glucose control"}, "[4]": {"test_system": "Cultured mouse astrocytes", "conditions": "for cell death / translocation of the apoptosis-inducing factor from mitochondria to nuclei: after PARP-1 activation"}, "[5]": {"test_system": "primary astrocyte cultures", "conditions": "10 mM extracellular NAD(+) after MNNG exposure"}, "THP-1 monocytic cells": {"test_system": "THP-1 monocytic cells", "conditions": "PMA-stimulated THP-1 cells"}, "[6]": {"test_system": "Mouse neuron and astrocyte cultures", "conditions": "for NAD(+) depletion: PARP1 activation by MNNG or H(2)O(2); for poly(ADP-ribose) accumulation: during MNNG exposure, immunostaining; for cell death: hydrogen peroxide, NMDA or MNNG exposure"}}, "data": [{"molecule": "CCOC(=O)C(C)=O", "note": "[Ethyl pyruvate, ethyl pyruvate]", "values": [{"measurement": "cardiac function", "setting": "[1]", "value": "improve cardiac function"}, {"measurement": "safety in human volunteers", "setting": "[2]", "value": "safe"}, {"measurement": "survival and organ dysfunction", "setting": "[3]", "value": "improve survival and ameliorate organ dysfunction"}]}, {"molecule": "COC(=O)C(C)=O", "note": "[Methyl pyruvate]", "values": [{"measurement": "increase in insulin production", "setting": "B-islet pancreatic cell", "value": "six-fold"}, {"measurement": "safety in human volunteers", "setting": "[2]", "value": "safe"}]}, {"molecule": "NC(=O)c1ccc[n+]([C@@H]2O[C@H](COP(=O)([O-])OP(=O)(O)OC[C@H]3O[C@@H](n4cnc5c(N)ncnc54)[C@H](O)[C@@H]3O)[C@@H](O)[C@H]2O)c1", "note": "[NAD(+)]", "values": [{"measurement": "mitochondrial membrane potential", "setting": "[4]; NAD(+) restored to near-normal levels after PARP-1 activation", "value": "enabled the recovery"}, {"measurement": "cell death", "setting": "[4]", "value": "blocked"}, {"measurement": "translocation of the apoptosis-inducing factor from mitochondria to nuclei", "setting": "[4]", "value": "blocked"}, {"measurement": "cell death", "setting": "[5]", "value": "prevented"}, {"measurement": "glycolytic capacity", "setting": "[5]", "value": "completely restored"}]}, {"molecule": "CCCCC/C=C/C=C1/C(=O)C=CC1C/C=C\\CCCC(=O)O", "note": "(stereo not drawn) [PGJ2, 15-deoxy-Delta(12, 14)-PGJ2]", "values": [{"measurement": "IL-1, IL-6 and TNFalpha (pro-inflammatory cytokine) secretion", "setting": "THP-1 monocytic cells", "value": "inhibitory effect"}, {"measurement": "IL-1Ra production", "setting": "THP-1 monocytic cells", "value": "increasing"}]}, {"molecule": "NC(=O)c1ccccc1", "note": "[benzamide]", "values": [{"measurement": "NAD(+) depletion", "setting": "[6]", "value": "prevented"}, {"measurement": "poly(ADP-ribose) accumulation", "setting": "[6]", "value": "decrease"}, {"measurement": "cell death", "setting": "[6]", "value": "markedly reduced"}]}, {"molecule": "O=C(OC[C@H]1O[C@@H](OC(=O)c2cc(O)c(O)c(OC(=O)c3cc(O)c(O)c(O)c3)c2)[C@H](OC(=O)c2cc(O)c(O)c(OC(=O)c3cc(O)c(O)c(O)c3)c2)[C@@H](OC(=O)c2cc(O)c(O)c(OC(=O)c3cc(O)c(O)c(O)c3)c2)[C@@H]1OC(=O)c1cc(O)c(O)c(OC(=O)c2cc(O)c(O)c(O)c2)c1)c1cc(O)c(O)c(OC(=O)c2cc(O)c(O)c(O)c2)c1", "note": "[gallotannin]", "values": [{"measurement": "NAD(+) depletion", "setting": "[6]", "value": "prevented"}, {"measurement": "poly(ADP-ribose) accumulation", "setting": "[6]", "value": "increase"}, {"measurement": "cell death", "setting": "[6]", "value": "equally reduced"}]}, {"molecule": "cyclosporin A", "values": [{"measurement": "cell death", "setting": "[4]", "value": "blocked"}, {"measurement": "translocation of the apoptosis-inducing factor from mitochondria to nuclei", "setting": "[4]", "value": "blocked"}]}, {"molecule": "nobotanin B", "values": [{"measurement": "cell death", "setting": "[6]", "value": "equally reduced"}]}]}
